Experimental findings from patent publication US10888530B2, “Implantable drug delivery compositions and methods of use thereof” (AcuityBio Corporation, priority 2015, dated 2021) are described below.

Data set [1] is described as follows: Paclitaxel analysis in rabbit lung implant study (blood, pleural fluid, lung tissue). The data set is classed as in vivo. As to the method:
An incision at the 8th intercostal space was made into the thorax of anesthetized rabbits. The Caudal lobe was partially released from the underlying ligament. Implants were affixed as a sandwich at the apical end of a resected caudal lobe. In all cases, 2 implants top & bottom were preloaded onto a 30 mm GIA stapler. Stapling and resection were performed using a 30 mm GIA stapler. Animals were sutured, air was removed from the thorax and the wound covered. […] A general schematic of the reset procedure is provided by FIG. 13A-D. For example, the stapler jaws (with the implant) are positioned to grasp the tissue (FIG. 13A). Staples are then deployed through the implant securing it to the tissue at the same time as the internal blade bisects the stapled tissue (FIG. 13B). The now bisected implant is released from the stapler. The resected tissue is removed.

Data set [2] can be described thus: Therapeutic concentration range for paclitaxel.

`CC(=O)O[C@H]1C(=O)[C@@]2(C)[C@H]([C@H](OC(=O)c3ccccc3)[C@]3(O)C[C@H](OC(=O)[C@H](O)[C@@H](NC(=O)c4ccccc4)c4ccccc4)C(C)=C1C3(C)C)[C@]1(OC(C)=O)CO[C@@H]1C[C@@H]2O` [paclitaxel]: the concentration at 14 days in data set [1] (blood and tissues outside the thorax, rabbit, day 14) is < 0.5 ng/mL. Further, in data set [1] (paclitaxel coated buttress implants), the “Paclitaxel level in pleural fluid” value fell in the range of 10 to 100 nM. Moreover, the “Paclitaxel concentration in blood (below quantifiable limits)” value in data set [1] (rabbit, 2 days, 7 days and terminally at 14 days) was < 500 pg/mL. Besides, in data set [2], the IC90 – broadly, the concentration at which the effect reaches the 90% level – is ~50 nM and the “IC90 (therapeutic concentration range)” value was “about 42.5 ng/ml”.
